According to patent US3969419A, “3-(2-Halo-4-biphenylyl)-1-butanols and derivatives thereof” (Boehringer Ingelheim GmbH, priority 1973, dated 1976):
Read-outs that look alike come from different tables or passages of the source.

Experiments:
[1] = tested on: kaolin and carrageenin edema of the hind paws of the rat; assay: average anti-exudative (antiphlogistic) activity against kaolin and carrageenin edema; type: in vivo, rat (male FW 49); details: per os, for C only from carrageenin edema
Experimental: The compounds of the present invention were tested for antiphlogistic activity, ulcerogenic activity and acute toxicity in the manner described below, and representative results of these tests are shown in the tables, where
(§1) The compounds were tested for their anti-exudative effects on the kaolin edema and carrageenin edema of the hind paws of the rat, for their ulcerogenicity and for their acute toxicity by oral administration to rats.
(§2) The kaolin edema was induced according to the method of Hillebrecht [Arzneimittel-Forsch. 4, 607 (1954) ] by subplantary injection of 0.05 ml of a 10% suspension of kaolin in a 0.85% sodium chloride solution. The measurement of the thickness of the paws was done by using the technique of Doepfner and Cerletti (Int. Arch. Allergy, Immunol. 12, 89 (1958)).
(§3) Male FW 49-rats of an average weight of 120-150 gm were orally treated with the test compounds 30 minutes before inducement of the edema with the aid of a esophageal tube. Five hours after the provocation of the edema the averaged values of the swelling caused in the paws of the rats treated with the test compounds were compared with those values measured on blind-treated control animals. By graphic extrapolation the dose leading to a 35% reduction of the swelling (ED35) was calculated from the percent reduction values measured by administration of different doses.
(§4) The provocation of the carrageenin edema was effected according to the method of Winter et al. [Proc. Soc. exp. Biol. Med. 111, 544 (1962) ] by subplantary injection of 0.05 ml of a 1% solution of carrageenin in a 0.85% solution of sodium chloride. The test compounds were orally administered 60 minutes before the provocation of the edema.
(§5) For the calculation of the reductive effect on the edema, the values measured three hours after the provocation of the edema were used. All the other details were the same as described above in the case of the kaolin edema.
(§6) The therapeutic indices, as a measure for the therapeutic usefulness, were calculated by forming the quotient of the ED50 -value for the ulcerogenicity or of th LD50 -value and the ED35 -value derived from the tests for anti-exudative activity against the kaolin and carrageenin edema.

in vivo = details: po; for selectivity ratio: quotient of ulcerogenic ED50 and average antiexudative ED35, rat, per os, read-out: Therapeutic index: Ratio of ulcerogenic activity to antiexudative activity ED50/ED35; for TD50: rat
Experimental: as §1
The tests for ulcerogenic activity were effected on FW 49-rats of both sexes (ratio 1:1) having a body weight of 130 to 150 gm. The animals were given the substances on three subsequent days, once each day, as a trituration in tylose by way of an esophageal tube.
The animals were killed four hours after the last administration; the stomach and duodenal mucosa were investigated for ulcers.
From the percentage of animals showing at least one ulcer after administration of different doses, the ED50 -value was calculated according to the method of Litchfield and Wilcoxon [J. Pharmacol. exp. Therap. 96, 99 (1949) ].
as §6

[2] = tested on: kaolin edema of the hind paws of the rat; assay: anti-exudative effect on the kaolin edema of the hind paws of the rat; type: in vivo, rat (male FW 49); details: per os 30 minutes before inducement of edema, swelling at 5 hours, dose leading to 35% reduction of the swelling, graphic extrapolation
Experimental: as §1, §2, §3

[3] = tested on: carrageenin edema of the hind paws of the rat; assay: anti-exudative effect on the carrageenin edema of the hind paws of the rat; type: in vivo, rat (male FW 49); details: per os 60 minutes before provocation of edema, measured 3 hours after, dose leading to 35% reduction of the swelling
Experimental: as §1, §4, §5

[4] = acute toxicity by oral administration to rats; type: in vivo; details: in vivo, po; for selectivity ratio: quotient of LD50 and average anti-exudative ED35, rat, per os, read-out: Therapeutic ratio LD50/aver.ED35; for LD50 at 336 h: rat, per os as trituration in tylose, deaths within 14 days, Litchfield and Wilcoxon
Experimental: as §1
(§7) After oral administration to male and female FW 49-rats (ratio 1:1) having an average body weight of 135 gm, the acute toxicity (LD50) was determined. The substances were administered orally as a trituration in tylose.
(§8) The calculation of the LD50 -values was effected, as far as possible, according to the method of Litchfield and Wilcoxon, based on the percentage of animals which died within 14 days after administration of the different doses.
as §6

rat = assay: acute toxicity by oral administration to rats; type: in vivo; details: rat, per os, at 1600 mgm/kg, within 14 days
Experimental: as §1, §7, §8, §6

[5] = Table I, average of kaolin and carrageenin edema, read-out: Average anti-exudative ED35 per os
[6] = Table II, read-out: Average antiexudative ED35

Row | SMILES | ED35 [1, 5] | ED35 [1, 6] | selectivity ratio (in vivo) | TD50 (in vivo) | ED35 [2] | ED35 [3] | selectivity ratio [4] | LD50 at 336 h [4] | animals died (rat)
1 | CC(CCO)c1ccc(-c2ccccc2)c(F)c1 (stereo not drawn) [A, 3-(2-fluoro-4-biphenylyl)-1-butanol] | 12.8 mg/kg | 12.8 mg/kg | 2.39 | 30.5 mg/kg | 17 mg/kg | 8.5 mg/kg | 64.7 | 825 mg/kg | 
2 | CC(CCOC(=O)c1ccncc1)c1ccc(-c2ccccc2)c(F)c1.Cl (stereo not drawn) [B, 3-(2-fluoro-4-biphenylyl)-1-butyl isonicotinate hydrochloride] | 16.5 mg/kg | 16.5 mg/kg | 3.7 | 61 mg/kg | 20 mg/kg | 13 mg/kg | 92.7 | 1530 mg/kg | 
3 | CC(CCO)c1ccc(-c2ccccc2)c(Cl)c1 (stereo not drawn) [C, 3-(2-chloro-4-biphenylyl)-1-butanol] | 17 mg/kg | 17 mg/kg | 2.15 | 36.6 mg/kg |  | 17 mg/kg | > 94.1 | > 1600 mg/kg | 1 out of 10
